In the supplement of paper PMC4858399:
Counter-ions that a name gives are not always drawn.

Experiments:
[1] = tested on: Caenorhabditis elegans N2; test: lowest effective concentration for larval growth inhibition (size below effect threshold); higher = less potent; conditions: exposure time 48 h
How it was run: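 Log-transformed well means of per-worm extinction, read as size on a Biosort, came from 50 C. elegans N2 L1 larvae per 96-well grown 48 h at 20°C in K-medium with killed bacteria, 1% DMSO and 0.5 to 200 µM chemical. The lowest effective concentration is the first dose at which the plate-adjusted mean size is below the threshold and stays below it at every higher dose. The threshold is 5.665.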

[2] = tested on: Caenorhabditis elegans N2; test: mean nematode size ln(EXT) after 48 h, plate-adjusted (DMSO control set to 6) (ln(EXT), control-adjusted); higher = larger nematodes / less growth inhibition; conditions: exposure time 48 h
How it was run: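 In K-medium with killed OP50, 1% DMSO and 0.5–200 µM chemical, synchronised N2 L1 larvae of C. elegans (50 per well) grew for 48 h at 20°C. Extinction was read for every worm on the Biosort, with debris removed by a growth model. Natural-log values averaged per well gave mean size, which was corrected per plate by subtracting the vehicle control mean and adding 6.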

SMILES	lowest effective concentration [1]	mean nematode size ln(EXT) (ln) ([2]; 0.5 µM)	mean nematode size ln(EXT) (ln) ([2]; 1 µM)	mean nematode size ln(EXT) (ln) ([2]; 5 µM)	mean nematode size ln(EXT) (ln) ([2]; 10 µM)	mean nematode size ln(EXT) (ln) ([2]; 50 µM)	mean nematode size ln(EXT) (ln) ([2]; 100 µM)	mean nematode size ln(EXT) (ln) ([2]; 200 µM)
C[N+](C)(C)CC1CO1 (stereo not drawn) [Oxiranemethanaminium, N,N,N-trimethyl-, chloride]	200 µM	5.78	5.84	5.81	5.54	5.83	5.84	5.66
COc1cnc(OC)n2nc(NS(=O)(=O)c3c(OCC(F)F)cccc3C(F)(F)F)nc12 [Penoxsulam]	> 200 µM	6.17	6.06	5.98	6.03	6.01	6.02	5.72
CCCCCCCCCCCCCCC [Pentadecane]	> 200 µM	5.88	5.95	5.94	6.03	5.95	5.87	5.74
CCCCCOC(C)=O [Pentyl acetate]	> 200 µM	5.91	5.91	5.94	6	5.89	5.89	5.7
O=C(O)C(F)(F)C(F)(F)C(F)(F)C(F)(F)C(F)(F)F [Perfluorohexanoic acid]	> 200 µM	5.47	5.55	5.6	5.67	5.69	5.73	5.86
Oc1ccccc1 [Phenol]	> 200 µM	6.09	5.98	6.01	5.98	5.94	5.92	6.02
c1ccc2c(c1)Nc1ccccc1S2 [Phenothiazine]	> 200 µM	6.07	6.03	5.92	5.8	5.55	5.59	5.99
OCCOc1ccccc1 [Phenoxyethanol]	> 200 µM	5.77	5.98	6.04	6.07	6.15	5.99	5.97
CCCCC(CC)COC(=O)c1ccccc1C(=O)O (stereo not drawn) [Phthalic acid, mono-2-ethylhexyl ester]	> 200 µM	5.83	5.76	5.77	6.08	6.11	6.44	5.88
Nc1c(Cl)c(Cl)nc(C(=O)O)c1Cl [Picloram]	> 200 µM	6.16	6.06	6.09	6.14	6.12	6.14	5.97
CCc1ccc(CCOc2ccc(CC3SC(=O)NC3=O)cc2)nc1 (stereo not drawn) [Pioglitazone HCl]	> 200 µM	5.98	5.94	5.95	5.96	5.91	5.87	5.76
C1CNCCN1 [Piperazine]	> 200 µM	5.84	5.81	5.85	5.84	5.89	5.84	5.74
Cc1nc(N(C)C)nc(OC(=O)N(C)C)c1C [Pirimicarb]	> 200 µM	5.83	5.88	6.03	5.99	6.32	5.99	5.96
Cc1cccc(Nc2cc(Cl)nc(SCC(=O)O)n2)c1C [Pirinixic acid]	> 200 µM	6.05	5.95	5.99	5.97	5.94	5.77	5.93
O=S(=O)(O)C(F)(F)C(F)(F)C(F)(F)C(F)(F)F [Potassium nonafluoro-1-butanesulfonate]	> 200 µM	5.49	5.58	5.55	5.7	5.7	5.65	5.81
CC[C@H](C)C(=O)O[C@H]1C[C@H](O)C=C2C=C[C@H](C)[C@H](CC[C@@H](O)C[C@@H](O)CC(=O)O)[C@H]21 [Pravastatin sodium]	> 200 µM	5.99	5.97	5.93	5.92	5.91	5.79	5.81
CCCOC(=O)NCCCN(C)C [Propamocarb hydrochloride]	> 200 µM	5.84	5.93	5.9	5.93	6.01	5.91	5.89
CNC(=O)Oc1ccccc1OC(C)C [Propoxur]	> 200 µM	6.04	5.9	6.09	6.03	5.83	6.46	5.8
CCCc1ccccc1 [Propylbenzene]	50 µM	5.75	5.64	5.71	5.69	5.38	5.53	5.61
CC(O)CO (stereo not drawn) [Propylene glycol]	> 200 µM	6.09	5.99	6.05	6.02	5.91	5.9	5.71
CCCOC(=O)c1ccc(O)cc1 [Propylparaben]	> 200 µM	5.95	5.95	5.9	5.92	5.84	5.87	5.79

SMILES	lowest effective concentration [1]	mean nematode size ln(EXT) (ln) ([2]; 0.5 µM)	mean nematode size ln(EXT) (ln) ([2]; 1 µM)	mean nematode size ln(EXT) (ln) ([2]; 5 µM)	mean nematode size ln(EXT) (ln) ([2]; 10 µM)	mean nematode size ln(EXT) (ln) ([2]; 50 µM)	mean nematode size ln(EXT) (ln) ([2]; 100 µM)	mean nematode size ln(EXT) (ln) ([2]; 200 µM)
CC1=NNC(=O)N(/N=C/c2cccnc2)C1 [Pymetrozine]	> 200 µM	5.74	5.77	5.8	5.78	5.77	5.89	5.76
CCOC(=O)COc1cc(-c2nn(C)c(OC(F)F)c2Cl)c(F)cc1Cl [Pyraflufen-ethyl]	> 200 µM	5.75	5.74	5.74	5.85	5.98	6.02	5.88
COc1cc(OC)nc(Sc2cccc(Cl)c2C(=O)O)n1 [Pyrithiobac-sodium]	> 200 µM	5.98	6	6.11	6.18	6.06	6.1	5.69
O=C(O)c1c(Cl)ccc2cc(Cl)cnc12 [Quinclorac]	> 200 µM	5.97	6.03	6.03	5.99	5.97	6.07	5.76
c1ccc2ncccc2c1 [Quinoline]	> 200 µM	5.87	5.87	5.78	5.79	5.78	5.81	5.73
Oc1cccc(O)c1 [Resorcinol]	> 200 µM	5.81	5.86	5.94	5.84	5.88	5.84	5.78
CC1=C(/C=C/C(C)=C/C=C/C(C)=C/CO)C(C)(C)CCC1 [Retinol]	> 200 µM	5.92	5.89	5.91	5.75	5.9	5.84	5.68
O=C1NS(=O)(=O)c2ccccc21.[Na] [Saccharin sodium salt hydrate]	> 200 µM	5.88	5.93	5.96	5.9	5.89	5.9	5.79
CCNc1nc(Cl)nc(NCC)n1 [Simazine]	> 200 µM	6.2	6.08	6.12	6.13	6.17	6.19	5.77
O=C([O-])c1ccccc1.[Na+] [Sodium benzoate]	> 200 µM	5.83	5.83	5.95	5.83	5.86	5.76	5.68
CC(=O)C1C(=O)C=C(C)OC1=O (stereo not drawn) [Sodium dehydroacetate]	> 200 µM	5.99	5.95	5.97	5.86	5.94	5.93	5.72
CN(C)C(=S)S [Sodium dimethyldithiocarbamate]	> 200 µM	5.93	5.79	5.88	5.82	5.85	5.81	5.69
O=C1O[C@H]([C@H](O)CO)C([O-])=C1O.[Na+] [Sodium erythorbate]	> 200 µM	5.96	5.89	5.94	5.98	6	5.9	5.68
O=NO [Sodium nitrite]	> 200 µM	6	6.02	6.05	6.03	6.08	6.04	5.75
O=[N+]([O-])c1ccc(O)cc1 [Sodium p-nitrophenolate]	> 200 µM	5.95	5.97	5.92	5.98	6.15	5.81	5.87
Cc1ccc(S(=O)(=O)O)cc1C [Sodium xylenesulfonate]	> 200 µM	5.89	5.95	5.92	5.82	5.89	5.8	5.72
C/C=C/C=C/C(=O)O [Sorbic acid]	> 200 µM	5.84	5.83	5.82	5.95	5.89	5.86	5.7
Cc1cn([C@H]2C=C[C@@H](CO)O2)c(=O)[nH]c1=O [Stavudine]	> 200 µM	5.47	5.53	5.6	5.67	5.69	5.7	5.93
CCCCCCCCCCCCCCCCCC(=O)O [Stearic acid]	> 200 µM	6.02	5.96	6.03	5.96	5.87	5.85	5.91
c1ccc(C2CO2)cc1 (stereo not drawn) [Styrene oxide]	> 200 µM	6.05	6.04	6.03	6.01	6.03	6.03	5.89
